Assays:
[1] = Ca^2+ titration of purified NIR-GECO variants (EGTA-buffered Ca^2+ solutions); type: binding; details: Ca^2+ titration of purified protein, 25° C.; read-out: apparent Kd
Source text: (§1) NIR-GECO1 is a near infrared indicator and is engineered from a naturally-monomeric infrared fluorescent proteins (mIFP). NIR-GECO1 has absorbance and emission peaks at 678 and 704 nm, respectively, and undergoes a 90% decrease in fluorescence intensity upon binding Ca^2+, serving as an inverse response indicator contrast to K-GECO1, as shown in FIG. 2B.
(§2) To purify NIR-GECO variants for in vitro characterization, the gene encoding variants of interest with a poly-histidine tag on the C terminus, was expressed from the pBAD vector. Bacteria were lysed with a cell disruptor (Constant Systems Ltd) and then centrifuged at 15,000 g for 30 min, and proteins were purified by Ni-NTA affinity chromatography (Agarose Bead Technologies). The buffer was typically exchanged to 10 mM MOPS, 100 mM KCl (pH 7.2) with centrifugal concentrators (GE Healthcare Life Sciences).
Ca^2+ titrations were carried out using EGTA-buffered Ca^2+ solutions (Calcium Calibration Buffer Kit no. 1, Life Technologies). We prepared buffers by mixing a CaEGTA buffer (30 mM MOPS, 100 mM KCl, 10 mM EGTA, 10 mM CaCl2) and an EGTA buffer (30 mM MOPS, 100 mM KCl, 10 mM EGTA) to give free Ca^2+ concentrations ranging from 0 to 39 μM at 25° C. Fluorescence intensities were plotted against Ca^2+ concentrations and fitted by a sigmoidal binding function to determine the Hill coefficient and Kd.

iPSC-CMs [2] = assay: Blue-light photoactivation testing of GECIs expressed in iPSC-CMs; type: cell-based, human; details: 0.19 W/cm^2 of 470-nm LED light
Source text: (§3) (A) A representative time course of spontaneous Ca^2+ oscillations in iPSC-CMs as imaged using K-GECO1. (B) Photoactivation of R-GECO1 and (C) K-GECO1 in iPSC-CMs. Cells with and without spontaneous activities are shown in trace (i) and (ii), respectively. (D) Combined use of K-GECO1 and channelrhodopsin-2 (ChR2) in iPSC-CMs for all-optical control and observation of Ca^2+ transients. Illumination with 470-nm light at a pulse duration of 150 ms for optical control is indicated by arrowheads. (E) Small molecular inhibitors of the voltage-gated L-type calcium channels were applied to iPSC-CMs. iPSC-CMs were plated out at low density and exposed to clinically relevant doses of 100 nM and 1 μM for nifedipine and verapamil, respectively. Traces were obtained with optical stimulation by 470-nm light at a pulse duration of 40 ms at 0.3 Hz.
FIG. 7. Examination of photoactivation effects of NIR-GECO1 and NIR-GECO2 expressed in iPSC-CMs. […]
An inverted microscope (D1, Zeiss) equipped with a 63× objective lens (NA 1.4, Zeiss) and a multiwavelength LED light source (pE-4000, CoolLED) was used. […] The filter set (Q565lp dichroic mirror, and HQ620/60 emission filter) was used to stimulate ChR2 and to acquire fluorescence imaging of K-GECO1 or R-GECO1. […] Fluorescence signals were recorded using a CMOS camera (ORCA-Flash4.0LT, HAMAMATSU) controlled by a HC Image software. […]

[3] = In vitro fluorescence characterization of purified NIR-GECO1; type: physicochemical; details: inverse response indicator
Source text: as §1
as §2, with “The buffer was typically exchanged to 10 mM MOPS, 100 mM KCl (pH 7.2) with centrifugal concentrators (GE Healthcare Life Sciences).” left out
The extinction coefficients were determined by comparing the absorbance value at 678 nm to the absorbance value at the 391 nm and assuming an extinction coefficient of 39,900 M^− cm^− at 391 nm. […] The concentration of NIR-GECO variants (Ca^2+-free), NIR-GECO variants (Ca^2+-saturated) and mIFP was adjusted to have absorbance of 0.2-0.6 at 650 nm. A series of dilutions, with absorbance ranging from 0.01 to 0.05, were prepared, and integrated emission intensity versus absorbance was plotted. Quantum yields were determined from the slopes (S) of each line using the equation Φprotein=Φstandard*(Sprotein/Sstandard).

iPSC-CMs [4] = assay: Pharmacological stimulation by caffeine in iPSC-CMs imaged using NIR-GECO1 or NIR-GECO2; type: cell-based, human; details: 10 mM caffeine
Protocol: (§4) Representative time courses of Ca^2+ influx influenced by pharmacological stimulations of caffeine (10 mM). Spontaneous calcium oscillations were also able to be observed before applications of caffeine.
(§5) With reference to FIG. 8, NIR-GECO1 expressed in HL-1 (A) and iPSC-CMs (B), and NIR-GECO2 expressed in iPSC-CMs (C) were tested for pharmacological stimulation.
Human iPSC-derived cardiomyocytes (Human iPSC Cardiomyocytes[…]|ax2505) were purchased from Axol Bioscience. The cells were plated in two wells of a 6-well plate and cultured for eight days in Axol's Cardiomyocyte Maintenance Medium to 80-90% confluency. Cells then were re-plated on Fibronectin/Gelatin (0.5%/0.1%) coated glass bottom dishes for final observation with Tyrode's buffer. […]
(§6) An inverted microscope (D1, Zeiss) equipped with a 63× objective lens (NA 1.4, Zeiss) and a multiwavelength LED light source (pE-4000, CoolLED) was used. […] The filter set (T685lpxr dichroic mirror, and ET720/60 emission filter) was used to stimulate ChR2 and to acquire fluorescence imaging of NIR-GECO1. […] Fluorescence signals were recorded by a CMOS camera (ORCA-Flash4.0LT, HAMAMATSU) and controlled by a HC Image software.

HL-1 cells = assay: Pharmacological stimulation by caffeine in HL-1 cells imaged using NIR-GECO1; type: cell-based, mouse; details: 10 mM caffeine
Protocol: as §4
NIR-GECO1 and NIR-GECO2 were then tested for its performance in cardiovascular research. In one aspect of the present invention, a cell culture of stable immortalized cell lines, known as the HL-1 cell line, derived from mouse atrial cardiomyocytes is used as a model.
as §5
To culture the HL-1 cell line, flasks were pre-coated with gelatin/fibronectin at 37° C. overnight. […]
as §6

[5] = system: voltage-gated L-type calcium channels; assay: L-type calcium channel inhibitors applied to iPSC-CMs, optically paced Ca^2+ transients imaged using K-GECO1 with ChR2; type: cell-based, human; details: 1 μM; 470-nm pulses of 40 ms at 0.3 Hz
Source text: as §3, with “Hz. […]” for “Hz.”
An inverted microscope (D1, Zeiss) equipped with a 63× objective lens (NA 1.4, Zeiss) and a multiwavelength LED light source (pE-4000, CoolLED) was used. […] The filter set (Q565lp dichroic mirror, and HQ620/60 emission filter) was used to stimulate ChR2 and to acquire fluorescence imaging of K-GECO1 or R-GECO1. […] Fluorescence signals were recorded using a CMOS camera (ORCA-Flash4.0LT, HAMAMATSU) controlled by a HC Image software.

Q: For “NIR-GECO2: near infrared Ca^2+ indicator sharing 99% sequence identity with NIR-GECO1 (SEQ ID NO. 7)”, which Kd [1] is on record?
A: 480 nM

Q: And the “photoactivation: changes in fluorescence intensity under illumination” value (iPSC-CMs [2]; pulse duration 100 ms)?
A: no significant changes in fluorescence intensity

Q: Which results are given for “NIR-GECO1: near infrared genetically encoded Ca^2+ indicator engineered from monomeric infrared fluorescent protein mIFP (SEQ ID NO. 6)”?
A: Kd [1]: 215 nM; decrease in fluorescence intensity upon binding Ca^2+ [3]: 90%; photoactivation: changes in fluorescence intensity under illumination (iPSC-CMs [2]; pulse duration 40 ms): no significant changes in fluorescence intensity

Q: For Cn1c(=O)c2c(ncn2C)n(C)c1=O [caffeine], which “fluorescence intensity change (inverse indicator: increase in cytosolic Ca^2+ concentration)” value (iPSC-CMs [4]) is on record?
A: significant decreases in fluorescence intensities

Q: And the “fluorescence intensity change (inverse indicator: increase in cytosolic Ca^2+ concentration)” value (HL-1 cells)?
A: significant decreases in fluorescence intensities

Q: With COc1ccc(CCN(C)CCCC(C#N)(c2ccc(OC)c(OC)c2)C(C)C)cc1OC (centres unmarked) [verapamil] as the molecule, how does the “effect on triggered intensity change as imaged using K-GECO1” value [5] read?
A: suppress the triggered intensity change
